“Also recorded” adds a separate entry of the source.
Assays:
E. coli DNA gyrase [1] = target: T1, E. coli DNA gyrase (Escherichia coli, UniProt P0AES4+P0AES6); settings: not studied further in this paper; cited from earlier work
T1 construct: made in house

M. mazei topo VI [2] = target: T2, M. mazei topo VI (Methanosarcina mazei, UniProt Q8PUB7+Q8PUB8); assay: Native gel shift assay, topo VI binding to 147 bp DNA fragment
T2 construct: His tag; made in house
Protocol: In order to test the effects of hit compounds upon DNA binding by topoisomerases, samples of enzyme and drug were prepared under the following conditions in a final volume of 10 μL: 1 nM 147 bp linear fragment of DNA derived from pBR322, [82] 50 mM Tris•HCl (pH 7.5), 100 mM KCl, 5 mM MgCl2, 2 mM DTT, 10% w/v glycerol. Samples were incubated for 30 min at room temperature before being run on a 5% (29:1) Protogel acrylamide (National Diagnostics) gel in 90 mM Tris·Borate, 5 mM MgCl2 at 150 V for 45 min. The DNA was stained by soaking in 2 µg/mL ethidium bromide for 10 min and visualised under UV light.

S. shibatae topo VI = target: T3, S. shibatae topo VI (Saccharolobus shibatae, UniProt O05207+O05208); assay: Protection from ADPNP-induced, S. shibatae topo VI-mediated DNA cleavage; format: biochemical, Sulfolobus shibatae
T3 construct: gift from Danielle Gadelle (University of Paris XI, Orsay)
T3 sequence (O05207 whole entry): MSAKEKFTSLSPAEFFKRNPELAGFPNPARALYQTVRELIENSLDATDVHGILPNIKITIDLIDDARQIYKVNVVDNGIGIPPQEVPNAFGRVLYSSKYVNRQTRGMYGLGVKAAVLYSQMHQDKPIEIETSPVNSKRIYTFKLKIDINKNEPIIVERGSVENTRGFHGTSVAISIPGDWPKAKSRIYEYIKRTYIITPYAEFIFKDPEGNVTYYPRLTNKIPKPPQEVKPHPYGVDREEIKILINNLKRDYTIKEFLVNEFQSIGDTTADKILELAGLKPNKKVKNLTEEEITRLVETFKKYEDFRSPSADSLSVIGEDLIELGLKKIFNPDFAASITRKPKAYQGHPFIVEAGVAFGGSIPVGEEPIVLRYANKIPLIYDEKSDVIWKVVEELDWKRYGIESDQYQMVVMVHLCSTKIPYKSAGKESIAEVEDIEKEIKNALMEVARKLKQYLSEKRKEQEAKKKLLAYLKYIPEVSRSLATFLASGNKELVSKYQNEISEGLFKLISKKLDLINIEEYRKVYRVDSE
T3 sequence (O05208 whole entry): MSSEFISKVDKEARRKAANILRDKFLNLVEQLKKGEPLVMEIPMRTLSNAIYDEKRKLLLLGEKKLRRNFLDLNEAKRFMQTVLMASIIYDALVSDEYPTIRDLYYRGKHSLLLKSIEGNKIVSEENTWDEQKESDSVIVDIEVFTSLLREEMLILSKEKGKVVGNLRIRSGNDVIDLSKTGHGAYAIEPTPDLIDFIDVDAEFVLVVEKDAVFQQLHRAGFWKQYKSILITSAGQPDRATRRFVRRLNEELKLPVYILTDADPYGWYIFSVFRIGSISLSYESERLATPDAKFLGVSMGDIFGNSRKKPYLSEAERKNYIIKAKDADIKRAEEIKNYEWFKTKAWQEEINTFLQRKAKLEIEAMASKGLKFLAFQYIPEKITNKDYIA
Protocol: (§1) Assays to detect the stabilisation of cleavage complexes were identical to the protocol for topoisomerase activity detailed above, except as follows. Cleavage experiments with DNA gyrase were carried out in the absence of ATP and spermidine and 30 µL reactions were stopped with 3 µL 10% SDS and incubated with 3 µL 1 mg/mL proteinase K solution at 37°C for 1 h. For cleavage complex protection assays with suramin, the reaction buffer was modified to contain 4 mM CaCl2 rather than MgCl2.

M. mazei topo VI [3] = target: T2, M. mazei topo VI; assay: Agarose gel-based DNA relaxation assay; format: biochemical; settings: for IC50: gel relaxation assay, 1 unit (50 nM) topo VI, read-out: Approx. IC50 against M. mazei topo VI; for Mechanism (Topo VI): summary of mechanistic tests with M. mazei and S. shibatae topo VI
Protocol: (§2) The agarose gel-based assay was conducted as previously described, [44], [62]. In brief, topoisomerases were incubated with 0.5 µg of plasmid and the desired concentration of compound for 30 min at 37°C (for DNA gyrase and M. mazei topo VI) or 5 min at 75°C (for S. shibatae topo VI), in a total volume of 30 µL. […] Reactions were stopped by the addition of a loading buffer containing EDTA and the drug extracted by vortexing with either chloroform or aqueous butanol as required. In the case of M. mazei topo VI, it was necessary to include SDS in the loading buffer, at a final concentration of 1%. Samples were loaded onto a 1% agarose gel, run for the appropriate length of time and stained with ethidium bromide before visualisation on a UV transilluminator.

E. coli DNA gyrase [4] = target: T1, E. coli DNA gyrase; assay: DNA triplex-based microtitre plate screen, gyrase supercoiling; format: biochemical; settings: 25 µM compound, duplicate
Protocol: The triplex-based assay was conducted as previously described [45]–[47]. In brief, oligonucleotide TFO1 was immobilised onto a streptavidin-coated microtitre plate. Excess oligonucleotide was removed by washing with buffer. […] The reaction was stopped by the addition of a low pH, high salt buffer and triplex formation was allowed to occur for 30 min at room temperature. The DNA retained on the plate was stained with SYBR Gold (Sigma) dye and the fluorescence readings for each well read in a SpectraMax Gemini fluorimeter (Molecular Devices).
Twelve plates were screened in duplicate over three days manually using a multichannel pipette as previously described. […] Each plate contained 16 control reactions: eight positive for enzyme activity, which contained enzyme but no library compounds, and eight negative for enzyme activity, which lacked both enzyme and library compounds. All controls were carried out with 5% DMSO.

E. coli DNA gyrase [5] = target: T1, E. coli DNA gyrase; assay: Gel-based gyrase-mediated DNA cleavage assay; format: biochemical; settings: absence of ATP
Protocol: as §1

E. coli DNA gyrase [6] = target: T1, E. coli DNA gyrase; assay: Agarose gel-based DNA supercoiling assay; format: biochemical
Protocol: as §2

E. coli MG1655 = assay: Bacterial growth inhibition; format: cell-based, Escherichia coli; settings: liquid and solid media
Protocol: (§3) For E. coli work, 10 mL cultures of E. coli MG1655 or NR698 were grown overnight at 37°C in LB medium. A 100 µL sample was then added to 10 mL of LB medium containing the desired concentration of compound. The culture was then allowed to grow at 37°C for 5 h and its OD600 measured every hour. For M. smegmatis, a 50 mL culture was grown for 48 h in Middlebrooks 7H11 medium at 37°C. A 100 µL sample was then added to 10 mL of Middlebrooks 7H11 containing the desired concentration of compound. The culture was then allowed to grow at 37°C for 9 h and its OD600 measured every three hours. For colony counting experiments M. smegmatis was grown for 48 h in 50 mL of Middlebrooks 7H9 medium at 37°C. A 100 µL sample was then added to 10 mL of Middlebrooks 7H9 medium containing the desired concentration test compound and allowed to grow at 37°C overnight. After 16 h, 20 µL samples were taken from these cultures and diluted 1 in 10,000 with Middlebrooks 7H9 medium. Petri dishes containing Middlebrooks 7H11 agar were prepared and 100 µL of each diluted culture was spread out. The plates were subsequently stored at 4°C. This was repeated every three hours for six hours, after which the plates were transferred to 37°C for 48 h. The numbers of colonies for each time point were counted manually.

E. coli strain NR698 = assay: Bacterial growth inhibition, membrane-permeable strain; format: cell-based, Escherichia coli; settings: liquid and solid media
Protocol: as §3

M. smegmatis mc^2155 = assay: Bacterial growth inhibition and colony counting; format: cell-based, Mycobacterium smegmatis
Protocol: as §3

[7] = target: T4, M. mazei DNA topoisomerase VI (Methanosarcina mazei, UniProt Q8PUB7+Q8PUB8); assay: DNA triplex-based microtitre plate screen, topo VI relaxation; format: biochemical; settings: 25 µM compound, duplicate
T4 construct: His tag; made in house
T4 sequence (Q8PUB8 whole entry): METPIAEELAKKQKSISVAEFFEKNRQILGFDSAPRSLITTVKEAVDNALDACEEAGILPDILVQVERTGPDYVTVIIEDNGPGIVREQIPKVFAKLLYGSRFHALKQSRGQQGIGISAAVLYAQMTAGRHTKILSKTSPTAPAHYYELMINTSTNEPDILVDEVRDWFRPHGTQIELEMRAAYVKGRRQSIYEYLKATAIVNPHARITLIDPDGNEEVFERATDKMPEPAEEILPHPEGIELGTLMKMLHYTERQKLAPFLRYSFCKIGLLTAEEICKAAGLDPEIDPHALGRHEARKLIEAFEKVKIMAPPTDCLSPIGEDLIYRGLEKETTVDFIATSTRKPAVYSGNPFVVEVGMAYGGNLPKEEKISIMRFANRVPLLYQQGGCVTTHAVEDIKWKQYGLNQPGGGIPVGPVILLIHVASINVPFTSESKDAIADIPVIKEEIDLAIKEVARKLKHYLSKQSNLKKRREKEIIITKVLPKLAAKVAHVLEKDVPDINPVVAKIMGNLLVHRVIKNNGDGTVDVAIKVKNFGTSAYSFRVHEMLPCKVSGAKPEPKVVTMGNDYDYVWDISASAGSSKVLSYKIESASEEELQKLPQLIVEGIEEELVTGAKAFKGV
T4 sequence (Q8PUB7 whole entry): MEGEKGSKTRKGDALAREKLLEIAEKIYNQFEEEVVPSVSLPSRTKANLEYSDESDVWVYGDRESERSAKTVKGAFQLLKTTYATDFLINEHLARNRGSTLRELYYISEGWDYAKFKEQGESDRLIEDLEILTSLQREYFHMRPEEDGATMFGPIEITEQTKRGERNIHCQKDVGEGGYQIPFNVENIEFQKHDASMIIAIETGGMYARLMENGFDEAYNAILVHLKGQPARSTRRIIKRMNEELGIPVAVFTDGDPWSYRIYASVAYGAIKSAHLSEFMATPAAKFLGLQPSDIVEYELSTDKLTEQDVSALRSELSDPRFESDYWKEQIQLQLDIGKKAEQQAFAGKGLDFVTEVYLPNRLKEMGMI
Protocol: The triplex-based assay was conducted as previously described [45]–[47]. In brief, oligonucleotide TFO1 was immobilised onto a streptavidin-coated microtitre plate. Excess oligonucleotide was removed by washing with buffer. Topoisomerase reactions were carried out in a 30 μL reaction volume containing 1–2 units topoisomerase and 1 μg relaxed or negatively supercoiled pNO1 under the published reaction conditions, [47]; gyrase supercoiling: 35 mM Tris•HCl (pH 7.5), 24 mM KCl, 4 mM MgCl2, 2 mM DTT, 1.8 mM spermidine, 1 mM ATP, 6.5% (w/v) glycerol, 0.1 mg/mL bovine serum albumin; topo VI relaxation: 20 mM bis-tris propane (pH 6.5), 100 mM potassium glutamate, 10 mM MgCl2, 1 mM DTT, 1 mM ATP. […] The DNA retained on the plate was stained with SYBR Gold (Sigma) dye and the fluorescence readings for each well read in a SpectraMax Gemini fluorimeter (Molecular Devices).
Twelve plates were screened in duplicate over three days manually using a multichannel pipette as previously described. […] Once the data had been collected from the screen, the fluorescence signals for the duplicates were averaged and converted into percentage inhibition using the positive and negative controls. […] To analyse the degree of separation between a negative and positive result the Z' factor [51] for the assay was calculated from the data for the control reactions (Equation 1). […]

T2 sequence (Q8PUB8 whole entry, the tested form may be a part): as the sequence (Q8PUB8 whole entry) above
T2 sequence (Q8PUB7 whole entry, the tested form may be a part): as the sequence (Q8PUB7 whole entry) above
T1 sequence (P0AES4 whole entry, one chain of several): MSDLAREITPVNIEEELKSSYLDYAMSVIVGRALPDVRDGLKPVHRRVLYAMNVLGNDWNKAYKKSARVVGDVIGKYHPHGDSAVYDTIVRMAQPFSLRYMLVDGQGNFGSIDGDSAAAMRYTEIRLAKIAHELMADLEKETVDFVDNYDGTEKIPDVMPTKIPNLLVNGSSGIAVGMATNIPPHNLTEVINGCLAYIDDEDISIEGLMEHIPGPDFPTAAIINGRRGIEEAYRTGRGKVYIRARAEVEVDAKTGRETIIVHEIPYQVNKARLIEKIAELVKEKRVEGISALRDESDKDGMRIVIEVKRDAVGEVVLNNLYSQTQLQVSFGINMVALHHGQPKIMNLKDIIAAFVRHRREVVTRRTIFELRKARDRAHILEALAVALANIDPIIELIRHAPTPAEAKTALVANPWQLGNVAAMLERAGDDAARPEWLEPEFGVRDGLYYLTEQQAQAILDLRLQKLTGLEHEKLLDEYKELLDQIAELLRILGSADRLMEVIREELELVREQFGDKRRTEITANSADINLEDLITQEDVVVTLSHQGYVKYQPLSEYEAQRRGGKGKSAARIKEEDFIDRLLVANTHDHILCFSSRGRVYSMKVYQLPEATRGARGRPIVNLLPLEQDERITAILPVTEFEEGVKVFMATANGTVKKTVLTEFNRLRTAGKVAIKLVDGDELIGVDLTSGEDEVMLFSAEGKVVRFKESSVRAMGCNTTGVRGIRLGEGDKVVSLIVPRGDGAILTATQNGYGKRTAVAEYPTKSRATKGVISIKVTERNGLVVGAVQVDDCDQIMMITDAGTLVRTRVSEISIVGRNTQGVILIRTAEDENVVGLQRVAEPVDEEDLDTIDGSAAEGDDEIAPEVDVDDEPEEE

C[C@H]1COc2c(N3CCN(C)CC3)c(F)cc3c(=O)c(C(=O)O)cn1c23 [Levofloxacin]
Mechanism (DNA gyrase), already characterised inhibitors (E. coli DNA gyrase [1]): Fluoroquinolone cleavage-complex stabiliser

O=C1c2ccccc2C(=O)c2c(O)c(O)cc(O)c21 [Purpurin]
Effect on binding of M. mazei topo VI to DNA (M. mazei topo VI [2]): appeared to prevent the binding of topo VI to DNA; also recorded: appeared to prevent G-segment binding
Prevention of ADPNP-induced DNA cleavage by S. shibatae topo VI (S. shibatae topo VI): marked ability to reduce the amount of cleavage
Inhibition in gel-based relaxation assay (hit validation) (M. mazei topo VI [3]): validated as hits
IC50 (M. mazei topo VI [3]): 40 µM
Mechanism (Topo VI) (M. mazei topo VI [3]): Blocks DNA binding

CC1COc2c(N3CCN(C)CC3)c(F)cc3c(=O)c(C(=O)O)cn1c23 (stereo not drawn) [Ofloxacin]
Mechanism (DNA gyrase), already characterised inhibitors (E. coli DNA gyrase [1]): Fluoroquinolone cleavage-complex stabiliser

CCn1cc(C(=O)O)c(=O)c2cc(F)c(N3CCN(C)CC3)cc21.CS(=O)(=O)O [Perfloxacine Mesylate]
Mechanism (DNA gyrase), already characterised inhibitors (E. coli DNA gyrase [1]): Fluoroquinolone cleavage-complex stabiliser

Nc1c2ccccc2nc2ccccc12 [9-Aminoacridne, 9-aminoacridine]
Prevention of ADPNP-induced DNA cleavage by S. shibatae topo VI (S. shibatae topo VI): appeared to prevent ADPNP-induced cleavage
Inhibition in gel-based relaxation assay (hit validation) (M. mazei topo VI [3]): validated as hits
IC50 (M. mazei topo VI [3]): 6 µM
Mechanism (Topo VI) (M. mazei topo VI [3]): Prevents DNA cleavage

CCn1cc(C(=O)O)c(=O)c2cc(F)c(N3CCNC(C)C3)c(F)c21 (stereo not drawn) [Lomefloxacin]
Mechanism (DNA gyrase), already characterised inhibitors (E. coli DNA gyrase [1]): Fluoroquinolone cleavage-complex stabiliser

O=C(O)c1cn(C2CC2)c2cc(N3CCNCC3)c(F)cc2c1=O [Ciprofloxacin]
Mechanism (DNA gyrase), already characterised inhibitors (E. coli DNA gyrase [1]): Fluoroquinolone cleavage-complex stabiliser

CCn1cc(C(=O)O)c(=O)c2cc(F)c(N3CCNCC3)cc21 [Norfloxacin]
Mechanism (DNA gyrase), already characterised inhibitors (E. coli DNA gyrase [1]): Fluoroquinolone cleavage-complex stabiliser

CCn1nc(C(=O)O)c(=O)c2cc3c(cc21)OCO3 [cinoxacin]
Outcome in gyrase screen (hit threshold 25% inhibition) (E. coli DNA gyrase [4]): missed by the screen

COc1c(N2CCNC(C)C2)c(F)cc2c(=O)c(C(=O)O)cn(C3CC3)c12 (stereo not drawn) [Gatifloxacin]
Mechanism (DNA gyrase), already characterised inhibitors (E. coli DNA gyrase [1]): Fluoroquinolone cleavage-complex stabiliser

COc1c(N2C[C@@H]3CCCN[C@@H]3C2)c(F)cc2c(=O)c(C(=O)O)cn(C3CC3)c12 [Moxifloxacin]
Mechanism (DNA gyrase), already characterised inhibitors (E. coli DNA gyrase [1]): Fluoroquinolone cleavage-complex stabiliser

C[n+]1c2cc(N)ccc2cc2ccc(N)cc21 [Acriflavinium]
Outcome in gyrase screen (hit threshold 25% inhibition) (E. coli DNA gyrase [4]): scored over the hit threshold
Mechanism (DNA gyrase), already characterised inhibitors (E. coli DNA gyrase [1]): ATPase inhibitor

CCn1cc(C(=O)O)c(=O)c2cc3c(cc21)OCO3 [oxolinic acid]
Outcome in gyrase screen (hit threshold 25% inhibition) (E. coli DNA gyrase [4]): missed by the screen

COc1cc(NS(C)(=O)=O)ccc1Nc1c2ccccc2nc2ccccc12 [m-Amsacrine]
Inhibition in gel-based relaxation assay (hit validation) (M. mazei topo VI [3]): validated as hits
IC50 (M. mazei topo VI [3]): 30 µM
Mechanism (Topo VI) (M. mazei topo VI [3]): Prevents DNA cleavage

CCn1cc(C(=O)O)c(=O)c2cc(F)c(N3CCNCC3)nc21 [enoxacin]
Outcome in gyrase screen (hit threshold 25% inhibition) (E. coli DNA gyrase [4]): missed by the screen

O=C1c2c(O)ccc(O)c2C(=O)c2c(NCCNCCO)ccc(NCCNCCO)c21 [Mitoxantrone]
Prevention of ADPNP-induced DNA cleavage by S. shibatae topo VI (S. shibatae topo VI): appeared to prevent ADPNP-induced cleavage
Induction of gyrase-mediated DNA cleavage (E. coli DNA gyrase [5]; 10 µM): strongly induced DNA cleavage
Ability to stabilise the gyrase cleavage complex (E. coli DNA gyrase [5]; 100 µM): reduced
Inhibition in gel-based supercoiling assay (hit validation) (E. coli DNA gyrase [6]): displayed inhibition
IC50 (E. coli DNA gyrase [6]; gel supercoiling assay, 1 unit of gyrase (12 nM), read-out: Approx. IC50 against E. coli DNA gyrase): 12 µM
Mechanism (DNA gyrase) (E. coli DNA gyrase [6]; summary of this study's mechanistic tests): Cleavage-complex stabiliser
Inhibition of growth / antimicrobial activity (E. coli MG1655): no inhibition of growth
Inhibition of growth / antimicrobial activity (E. coli strain NR698): no inhibition of growth
Inhibition in gel-based relaxation assay (hit validation) (M. mazei topo VI [3]): found to inhibit M. mazei topo VI
IC50 (M. mazei topo VI [3]): 2 µM
Mechanism (Topo VI) (M. mazei topo VI [3]): Prevents cleavage
Colony count relative to absence of drug (M. smegmatis mc^2155; 65 μM, grown in liquid media then plated onto drug-free agar): 2%
Inhibition of growth (M. smegmatis mc^2155; liquid broth / liquid cultures): strongly inhibited the growth; also recorded: found to inhibit the growth
Outcome in topo VI screen (hit threshold 25% inhibition) [7]: missed during the initial screen

CCn1cc(C(=O)O)c(=O)c2ccc(C)nc21 [nalidixic acid]
Outcome in gyrase screen (hit threshold 25% inhibition) (E. coli DNA gyrase [4]): missed by the screen

CCN(CC)CCCC(C)Nc1c2ccc(Cl)cc2nc2ccc(OC)cc12 (stereo not drawn) [Quinacrine]
Prevention of ADPNP-induced DNA cleavage by S. shibatae topo VI (S. shibatae topo VI): appeared to prevent ADPNP-induced cleavage
Inhibition in gel-based relaxation assay (hit validation) (M. mazei topo VI [3]): validated as hits
IC50 (M. mazei topo VI [3]): 8 µM
Mechanism (Topo VI) (M. mazei topo VI [3]): Prevents DNA cleavage

O=C(O)c1cn(-c2ccc(F)cc2)c2cc(N3CCNCC3)c(F)cc2c1=O [Surafloxacin]
Mechanism (DNA gyrase), already characterised inhibitors (E. coli DNA gyrase [1]): Fluoroquinolone cleavage-complex stabiliser

Reference: PMC3582512, “Application of a Novel Microtitre Plate-Based Assay for the Discovery of New Inhibitors of DNA Gyrase and DNA Topoisomerase VI” (PLoS ONE, 2013)
